pIC50: −log10 of the molar value. Read-outs that look alike come from different tables or passages of the source.
Key:
select kinases = assay: KINOMEscan in vitro competition binding assay for select kinases
[1] = test system: GFP-eIF2α in HEK293 cells; assay: PERK cellular assay, TR-FRET in HEK293-EGFP-eIF2a cells after tunicamycin-induced ER stress; assay type: cell-based
How it was run: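 HEK293 cells stably expressing GFP-eIF2α, plated 5000 cells/well overnight, pretreated with inhibitors 30 min at 37 °C, then ER stress induced with tunicamycin […] for 2 h.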

[2] = target: T1, EIF2AK3 (PERK) catalytic domain (amino acids 536-1116) (Homo sapiens, UniProt Q9NZJ5); assay: PERK in vitro activity assay (isolated), TR-FRET kinase assay; assay type: biochemical
T1 construct: EIF2AK3 (PERK) catalytic domain (amino acids 536-1116)
T1 sequence (Q9NZJ5 536-1116): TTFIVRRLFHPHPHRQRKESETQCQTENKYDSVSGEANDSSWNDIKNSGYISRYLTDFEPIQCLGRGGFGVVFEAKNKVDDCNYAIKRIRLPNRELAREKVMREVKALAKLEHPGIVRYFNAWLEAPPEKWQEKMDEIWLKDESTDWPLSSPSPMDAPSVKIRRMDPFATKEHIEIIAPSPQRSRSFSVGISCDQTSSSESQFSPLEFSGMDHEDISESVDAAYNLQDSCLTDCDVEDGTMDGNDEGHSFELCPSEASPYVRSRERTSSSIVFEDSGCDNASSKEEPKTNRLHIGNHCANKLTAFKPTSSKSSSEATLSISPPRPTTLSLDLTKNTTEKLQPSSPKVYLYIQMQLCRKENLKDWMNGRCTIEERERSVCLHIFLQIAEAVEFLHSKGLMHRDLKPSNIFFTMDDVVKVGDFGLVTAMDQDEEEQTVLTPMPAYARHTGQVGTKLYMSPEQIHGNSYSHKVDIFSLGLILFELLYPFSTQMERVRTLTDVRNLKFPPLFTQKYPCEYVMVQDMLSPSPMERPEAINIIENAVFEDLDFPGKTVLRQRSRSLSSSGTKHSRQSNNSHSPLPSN
How it was run: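 Human PERK catalytic domain (aa 536-1116) phosphorylating 100-200 nM GFP-eIF2a in 50 mM HEPES pH 7.5, 10 mM MgCl2, 1 mM EGTA, 0.01% Brij-35; enzyme-started, 45 min at room temperature. Stopped with 10 mM EDTA, 2 nM Tb-anti-phospho-eIF2a added for 90 min; IC50 from TR-FRET ratios by 4-parameter logistic fit.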

Aqueous solubility = assay type: physicochemical
[3] = HEK293-EGFP-eIF2a cells, tunicamycin 2 hours, read-out: Cellular eIF2α IC50
[4] = isolated PERK enzyme, 1.5 μM ATP, read-out: Biochemical IC50
[5] = Homo sapiens, HEK293, cellular potency, Table 2, read-out: P-EIF2α IC50
[6] = biochemical potency, Table 2, read-out: PERK IC50

With `Cc1nc(N)c2c(-c3ccc(NC(=O)C(O)c4cccc(F)c4)cc3C)cn(C)c2n1` (single isomer, unassigned) [Example 1, N-(4-(4-amino-2,7-dimethyl-7H-pyrrolo[2,3-d]pyrimidin-5-yl)-3-methylphenyl)-2-(3-fluorophenyl)-2-hydroxyacetamide] the “KINOMEscan competition binding, inhibition of AURKB” value (select kinases; kinase AURKB) was “No Inhibition (“No Inhibition” refers to less than 50% inhibition)”, the “KINOMEscan competition binding, inhibition of AXL” value (select kinases; kinase AXL) was “No Inhibition (“No Inhibition” refers to less than 50% inhibition)” and the “KINOMEscan competition binding, inhibition of BLK” value (select kinases; kinase BLK) was “No Inhibition (“No Inhibition” refers to less than 50% inhibition)”. The “KINOMEscan competition binding, inhibition of CAMK4” value (select kinases; kinase CAMK4) was “No Inhibition (“No Inhibition” refers to less than 50% inhibition)”, the “KINOMEscan competition binding, inhibition of CDK8” value (select kinases; kinase CDK8) was “No Inhibition (“No Inhibition” refers to less than 50% inhibition)” and the “KINOMEscan competition binding, inhibition of CDK11” value (select kinases; kinase CDK11) was “No Inhibition (“No Inhibition” refers to less than 50% inhibition)”. For the same compound, the “KINOMEscan competition binding, inhibition of CSF1R” value (select kinases; kinase CSF1R) was “No Inhibition (“No Inhibition” refers to less than 50% inhibition)”, the “KINOMEscan competition binding, inhibition of EIF2AK1” value (select kinases; kinase EIF2AK1) was “No Inhibition (“No Inhibition” refers to less than 50% inhibition)” and the “KINOMEscan competition binding, inhibition of EPHB6” value (select kinases; kinase EPHB6) was “No Inhibition (“No Inhibition” refers to less than 50% inhibition)”. The “KINOMEscan competition binding, inhibition of FLT3” value (select kinases; kinase FLT3) was “No Inhibition (“No Inhibition” refers to less than 50% inhibition)”, the “KINOMEscan competition binding, inhibition of HIPK4” value (select kinases; kinase HIPK4) was “No Inhibition (“No Inhibition” refers to less than 50% inhibition)” and the “KINOMEscan competition binding, inhibition of LOK” value (select kinases; kinase LOK) was “No Inhibition (“No Inhibition” refers to less than 50% inhibition)”. The “KINOMEscan competition binding, inhibition of MAP3K2” value (select kinases; kinase MAP3K2) was “No Inhibition (“No Inhibition” refers to less than 50% inhibition)”, the “KINOMEscan competition binding, inhibition of MAP3K3” value (select kinases; kinase MAP3K3) was “No Inhibition (“No Inhibition” refers to less than 50% inhibition)” and the “KINOMEscan competition binding, inhibition of MAP3K15” value (select kinases; kinase MAP3K15) was “No Inhibition (“No Inhibition” refers to less than 50% inhibition)”. The “KINOMEscan competition binding, inhibition of MEK5” value (select kinases; kinase MEK5) was “No Inhibition (“No Inhibition” refers to less than 50% inhibition)”, the “KINOMEscan competition binding, inhibition of MKNK2” value (select kinases; kinase MKNK2) was “No Inhibition (“No Inhibition” refers to less than 50% inhibition)” and the “KINOMEscan competition binding, inhibition of NEK1” value (select kinases; kinase NEK1) was “No Inhibition (“No Inhibition” refers to less than 50% inhibition)”. The “KINOMEscan competition binding, inhibition of NEK5” value (select kinases; kinase NEK5) was “No Inhibition (“No Inhibition” refers to less than 50% inhibition)”, the “KINOMEscan competition binding, inhibition of PIK3C2B” value (select kinases; kinase PIK3C2B) was “No Inhibition (“No Inhibition” refers to less than 50% inhibition)” and the “KINOMEscan competition binding, inhibition of RIOK2” value (select kinases; kinase RIOK2) was “No Inhibition (“No Inhibition” refers to less than 50% inhibition)”. For the same compound, the “KINOMEscan competition binding, inhibition of RIPK1” value (select kinases; kinase RIPK1) was “No Inhibition (“No Inhibition” refers to less than 50% inhibition)”, the “KINOMEscan competition binding, inhibition of RIPK2” value (select kinases; kinase RIPK2) was “No Inhibition (“No Inhibition” refers to less than 50% inhibition)” and the “KINOMEscan competition binding, inhibition of RIPK5” value (select kinases; kinase RIPK5) was “No Inhibition (“No Inhibition” refers to less than 50% inhibition)”. For the same compound, the “KINOMEscan competition binding, inhibition of TESK1” value (select kinases; kinase TESK1) was “No Inhibition (“No Inhibition” refers to less than 50% inhibition)”, the “KINOMEscan competition binding, inhibition of TIE2” value (select kinases; kinase TIE2) was “No Inhibition (“No Inhibition” refers to less than 50% inhibition)” and the “KINOMEscan competition binding, inhibition of TRKA” value (select kinases; kinase TRKA) was “No Inhibition (“No Inhibition” refers to less than 50% inhibition)”. The “KINOMEscan competition binding, inhibition of TRKB” value (select kinases; kinase TRKB) was “No Inhibition (“No Inhibition” refers to less than 50% inhibition)”, the “KINOMEscan competition binding, inhibition of TRKC” value (select kinases; kinase TRKC) was “No Inhibition (“No Inhibition” refers to less than 50% inhibition)” and the “KINOMEscan competition binding, inhibition of VRK2” value (select kinases; kinase VRK2) was “No Inhibition (“No Inhibition” refers to less than 50% inhibition)”. The “KINOMEscan competition binding, inhibition of YANK1” value (select kinases; kinase YANK1) was “No Inhibition (“No Inhibition” refers to less than 50% inhibition)”, the “KINOMEscan competition binding, inhibition of YANK2” value (select kinases; kinase YANK2) was “No Inhibition (“No Inhibition” refers to less than 50% inhibition)” and the “KINOMEscan competition binding, inhibition of YSK4” value (select kinases; kinase YSK4) was “No Inhibition (“No Inhibition” refers to less than 50% inhibition)”. For the same compound, the Kinase selectivity (select kinases; versus Example 9 and GSK2656157, KINOMEscan, Treespot analysis) was “more selective”, the pIC50 [1, 3] was 7.30 to 7.59 and the pIC50 [2, 4] was 7.60 to 9.00.
In the case of `Cc1cc(NC(=O)C(O)c2ccccc2)ccc1-c1cn(C)c2ncnc(N)c12` (centres unmarked) [Example 6, N-(4-(4-amino-7-methyl-7H-pyrrolo[2,3-d]pyrimidin-5-yl)-3-methylphenyl)-2-hydroxy-2-phenylacetamide], the “Aq Sol” value (Aqueous solubility) was 57 µM, the pIC50 [1, 3] was 7.60 to 9.00 and the pIC50 [1, 5] was 7.64. The pIC50 [2, 6] was 8.70 and the pIC50 [2, 4] was 7.60 to 9.00.
With `Cc1cc(NC(=O)Cc2ccccc2)ccc1-c1cn(C)c2ncnc(N)c12` [Compound A, reference compound] the “Aq Sol” value (Aqueous solubility) was 14 µM, the pIC50 [1, 5] was 7.39 and the pIC50 [2, 6] was 8.22.

From patent US20220356186A1, “PERK INHIBITING PYRROLOPYRIMIDINE COMPOUNDS” (HiberCell, Inc., priority 2019, published 2022)
